Data on three compounds can be found in ChEMBL document CHEMBL1201862, “PubChem BioAssay data set” (2004).

A word on the IC50: it is the concentration that inhibits the measured activity by half.

Active and inactive are the calls of the source. No stated cut-off is given here; in the data, actives have a measured IC50 and inactives only a lower limit.

Chain of Envelope glycoprotein gp160 (Q6QLK5 whole entry, the tested form may be a part): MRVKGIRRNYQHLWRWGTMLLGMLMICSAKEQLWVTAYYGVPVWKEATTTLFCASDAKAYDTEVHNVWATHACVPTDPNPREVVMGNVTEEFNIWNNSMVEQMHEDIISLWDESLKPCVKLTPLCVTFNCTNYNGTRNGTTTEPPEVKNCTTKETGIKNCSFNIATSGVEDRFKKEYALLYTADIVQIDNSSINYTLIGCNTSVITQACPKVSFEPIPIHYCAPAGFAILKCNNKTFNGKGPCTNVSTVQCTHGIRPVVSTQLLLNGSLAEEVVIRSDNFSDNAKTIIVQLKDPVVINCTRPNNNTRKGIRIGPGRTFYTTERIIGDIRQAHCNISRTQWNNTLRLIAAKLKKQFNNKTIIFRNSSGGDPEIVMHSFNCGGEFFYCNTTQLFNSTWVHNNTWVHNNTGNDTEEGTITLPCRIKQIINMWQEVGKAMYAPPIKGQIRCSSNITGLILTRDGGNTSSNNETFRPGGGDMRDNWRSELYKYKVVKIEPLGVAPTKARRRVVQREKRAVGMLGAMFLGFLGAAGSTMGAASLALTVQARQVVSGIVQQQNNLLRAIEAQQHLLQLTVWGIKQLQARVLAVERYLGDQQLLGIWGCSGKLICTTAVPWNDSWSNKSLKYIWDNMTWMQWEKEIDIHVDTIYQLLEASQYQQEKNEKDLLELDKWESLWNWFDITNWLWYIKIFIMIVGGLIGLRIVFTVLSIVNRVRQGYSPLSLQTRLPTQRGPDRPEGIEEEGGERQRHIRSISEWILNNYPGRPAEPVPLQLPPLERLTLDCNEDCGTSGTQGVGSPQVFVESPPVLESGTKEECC

The experiment has as its target Envelope glycoprotein gp160 (Human immunodeficiency virus 1, UniProt Q6QLK5). The experiment is described as follows: cell-free HIV fusion peptide-binding blockers – biochemical, uHTS, fluorescence dequenching, […] (AID 1986).
As for `O=[N+]([O-])c1cc([N+](=O)[O-])c2oc(-c3ccccc3)c(Br)c2c1O`, the half-maximal inhibitory concentration (IC50) was 8.02 µM (active). Consider `CCOc1cc(/C=C2\C(=N)N3N=C(S(C)(=O)=O)SC3=NC2=O)ccc1OCCOc1cccc(OC)c1`, for which the half-inhibitory concentration (IC50) is 12 µM (active).

`COc1cc(/C=C2/SC(=S)N(Cc3ccccc3)C2=O)ccc1OCC(=O)O`: the half-inhibitory concentration (IC50) is 17.3 µM (active).
